“Also recorded” adds a separate entry of the source. Read-outs that look alike come from different tables or passages of the source.
What was measured:
hiPSO-derived IECs [1] = assay: Cell viability of dispersed hiPSO-derived IECs (CellTiter-Glo 3D); details: for IEC-selective dose-dependent cytotoxicity: dose-dependent analysis, dispersed IECs from hiPSOs and hPIOs versus Caco-2 cells, Fig. 4D; for effect of kinase inhibitor on dose-dependent cytotoxicity induced by YC-1: 10 µM inhibitor with 0-30 µM YC-1, 48 h, Fig. 6A-C; for toxicity against IECs (cell viability): indicated doses, dispersed hiPSO-derived IECs, Fig. 5A, B
hiPSO-derived IECs [2] = test system: hiPSO-derived IECs
hPIO-derived IECs = assay: Cell viability of dispersed hPIO-derived IECs (CellTiter-Glo 3D); details: 1 µM, 48 h, dispersed IECs of hPIOs, Fig. 4A
Caco-2 cells = assay: Cell viability of Caco-2 cells (CellTiter-Glo 3D), counter-assay; format: cell-based, human; details: dose-dependent analysis, Fig. 4D
[3] = test system: caspase-8, RIP1, caspase-3, PARP, XIAP in hiPSO-derived IECs; assay: Western blot analysis of apoptotic proteins in hiPSO-derived IECs; format: cell-based, human; details: 0, 1, 10 µM, 14 h, Fig. 5D
Protocol: After the preparation of lysis buffer [50 mM Tris-HCl (pH 8.0), 150 mM NaCl, 1% Triton X-100, 0.5% deoxycholate, 0.1% sodium dodecyl sulfate (SDS), and a protease inhibitor cocktail (Nacalai Tesque)], cell lysates were subjected to SDS-polyacrylamide gel electrophoresis and transferred onto a polyvinylidene difluoride membrane. The membrane was blocked with Blocking One (Nacalai Tesque) for 1 h at room temperature (RT), incubated overnight at 4 °C with primary antibodies against caspase-3 (1:1000), caspase-8 (1:1000), PARP (1:1000), RIP1 (1:1000), XIAP (1:100), and β-actin (1:200), and incubated with secondary antibodies for 1 h at RT. Chemiluminescent signals were determined using Fusion Solo S (Vilber). A pre-stained ladder protein marker (XL-Ladder Broad, APRO Science) that was not visible as a chemiluminescent signal was used to determine the position of molecular weights. Full-scan images were represented in the Supplementary Information.

[4] = test system: CCND1 and VIL1 mRNA in hiPSO-derived IECs; assay: qRT-PCR of mRNA levels in hiPSO-derived IECs; format: cell-based, human; details: 0, 1, 10 µM, 48 h, Fig. 5E
Protocol: Total cellular RNA was extracted using RNeasy Mini Kit (Qiagen). Reverse transcription was performed using a high-capacity cDNA Reverse Transcription Kit (Thermo Fisher Scientific). The mRNA levels were measured by fluorescence real-time PCR on StepOnePlus (Thermo Fisher Scientific) using PrimeTime qPCR Probes (Integrated DNA Technologies). The 18S rRNA levels were used as an internal control to normalize the mRNA levels of each gene.

SMILES: CN(C)CC[C@H](CSc1ccccc1)Nc1ccc(S(=O)(=O)NC(=O)c2ccc(N3CCN(Cc4ccccc4-c4ccc(Cl)cc4)CC3)cc2)cc1[N+](=O)[O-] [ABT-737]
- IEC-selective dose-dependent cytotoxicity (hiPSO-derived IECs [1]): identified

SMILES: Oc1c2ccccc2c2c3c(cccc13)N=N2 [SP600125]
- effect of kinase inhibitor on dose-dependent cytotoxicity induced by YC-1 (hiPSO-derived IECs [1]): almost no effect

SMILES: COC(=O)c1ccc(O)c(NC(=O)COc2ccc(C34CC5CC(CC(C5)C3)C4)cc2)c1 [LW6]
- toxicity against IECs (cell viability) (hiPSO-derived IECs [1]; 48 h): little toxicity

SMILES: C[S+]([O-])c1ccc(-c2nc(-c3ccncc3)c(-c3ccc(F)cc3)[nH]2)cc1 (stereo not drawn) [SB203580]
- effect of kinase inhibitor on dose-dependent cytotoxicity induced by YC-1 (hiPSO-derived IECs [1]): almost no effect

SMILES: COC(=O)Nc1c(N)nc(-c2nn(Cc3ccccc3F)c3ncc(F)cc23)nc1N [vericiguat]
- toxicity against IECs (cell viability) (hiPSO-derived IECs [1]; 48 h): little toxicity

SMILES: COc1cccc(-c2cc(=O)c3ccccc3o2)c1N [PD98059]
- inhibition of cytotoxicity of 1 µM YC-1 (hiPSO-derived IECs [1]; 0-30 µM PD98059 with 1 µM YC-1, 48 h, Fig. 6D): in a dose-dependent manner
- inhibition of cytotoxicity caused by 4-HPR (hiPSO-derived IECs [1]; 10 µM PD98059 with 0-30 µM 4-HPR, 48 h, Fig. 6F): failed to inhibit
- inhibition of cytotoxicity caused by ABT-737 (hiPSO-derived IECs [1]; 10 µM PD98059 with 0-30 µM ABT-737, 48 h, Fig. 6E): failed to inhibit
- inhibition of cytotoxicity caused by N-oleoyldopamine (hiPSO-derived IECs [1]; 10 µM PD98059 with 0-30 µM N-oleoyldopamine, 48 h, Fig. 6H): failed to inhibit
- inhibition of cytotoxicity caused by ivermectin (hiPSO-derived IECs [1]; 10 µM PD98059 with 0-30 µM ivermectin, 48 h, Fig. 6G): failed to inhibit
- inhibition of YC-1-induced cytotoxicity in IECs from hiPSOs expanded with Matrigel (hiPSO-derived IECs [1]; 10 µM PD98059 with 1 µM YC-1, 48 h, Figure S5): inhibited
- effect of kinase inhibitor on dose-dependent cytotoxicity induced by YC-1 (hiPSO-derived IECs [1]): substantially prevented

SMILES: CS(=O)(=O)c1ccc(Oc2cc(F)cc(C#N)c2)c2c1[C@H](O)C(F)(F)C2 [PT-2385]
- toxicity against IECs (cell viability) (hiPSO-derived IECs [1]; 48 h): little toxicity

SMILES: CCc1c2c(nc3ccc(O)cc13)-c1cc3c(c(=O)n1C2)COC(=O)[C@]3(O)CC [SN-38]
- cytotoxic effect (cell viability) (hiPSO-derived IECs [2]): confirmed
- cytotoxic effect (cell viability) (hPIO-derived IECs): confirmed

SMILES: CC1=C(/C=C/C(C)=C/C=C/C(C)=C/C(=O)Nc2ccc(O)cc2)C(C)(C)CCC1 [4-HPR, N-(4-hydroxyphenyl)retinamide]
- IEC-selective dose-dependent cytotoxicity (hiPSO-derived IECs [1]): identified

SMILES: CCCCCCCC/C=C\CCCCCCCC(=O)NCCc1ccc(O)c(O)c1 [N-oleoyldopamine]
- IEC-selective dose-dependent cytotoxicity (hiPSO-derived IECs [2]): identified

SMILES: OCc1ccc(-c2nn(Cc3ccccc3)c3ccccc23)o1 [YC-1, 3-(5′-hydroxymethyl-2′-furyl)-1-benzyl indazole]
- cytotoxicity against Caco-2 cells (Caco-2 cells): least cytotoxicity; also recorded: very little
- anti-apoptotic protein XIAP level [3]: decreased
- cleavage of caspase-8, RIP1, caspase-3 and PARP [3]: dose-dependently induced the cleavage
- CCND1 mRNA levels [4]: downregulated
- VIL1 mRNA levels [4]: downregulated
- IEC-selective dose-dependent cytotoxicity (hiPSO-derived IECs [2]): identified
- cytotoxicity against IECs (hiPSO-derived IECs [2]): significant cytotoxicity

Reference: article PMC10070462, “Drug cytotoxicity screening using human intestinal organoids propagated with extensive cost-reduction strategies” (Scientific Reports, 2023)
